Measurements as given in publication PMC10376326, “Novel Acylselenourea Derivatives: Dual Molecules with Anticancer and Radical Scavenging Activity” (Antioxidants, 2023).

Columns and labels:
[1] = test system: MDA-MB-231 (breast) cancer cell line; test: MTT cell viability assay, MDA-MB-231; type: cell-based, human; settings: Homo sapiens, MDA-MB-231, 48 h; for activity at 10 µM: read-out: Cell growth %, MDA-MB-231, 10 µM, 48 h, MTT; for activity at 50 µM: read-out: Cell growth %, MDA-MB-231, 50 µM, 48 h, MTT
Method: (§1) Cell lines were purchased from the American Type Culture Collection (ATCC). Cell lines MDA-MB-231, HTB-54, DU-145, and BEAS-2B were cultured in RPMI 1640 medium (Gibco, Thermo Fisher Scientific, Gaithersburg, MD, USA) supplemented with 10% fetal bovine serum (FBS; Gibco), 100 units/mL penicillin, and […] streptomycin (Gibco). HT-29 cell line was grown in McCoy’s 5A (Gibco), 10% FBS, 100 units/mL penicillin, and 100 μg/mL streptomycin. Cells were maintained at 37 °C and 5% CO2. The culture medium was changed every three days.
(§2) The cell viability of each compound was measured by MTT colorimetric assay. Each compound was dissolved in DMSO at a concentration of 0.01 M. Each compound was tested at two different concentrations (10 and 50 µM) in MDA-MB-231 (breast), HTB-54 (lung), DU-145 (prostate), and HT-29 (colon) human cancer cell lines. Serial dilutions were prepared with supplemented culture medium. […] IC50 and selectivity indexes (SI) were determined.
(§3) Briefly, 1 × 10^4 tumor cells per well were grown in 96-well plates for 24 h. Then, these cells were incubated for 48 h with either DMSO (control) or a different concentration of each of the tested compounds. The cell viability was determined by adding 20 μL of MTT two hours and a half before the termination point. After this time, the culture medium was removed. The resulting formazan crystals were dissolved in 50 μL of DMSO, and the absorbance was measured at 570 nm. Results are expressed as % cell growth. The data were obtained from at least three independent experiments performed in quadruplicate.

[2] = DPPH radical scavenging assay; type: biochemical; settings: for DPPH Inhibitory%: acylselenourea analogs
Method: Different methods are available to quantify the antioxidant capacity of natural or novel molecules. Notable among these are the ABTS^•+ and DPPH^• methods, which measure the quenching efficiency in vitro for known concentrations of preformed radicals. In this work, the DPPH^• colorimetric assay was carried out. Measurements were recorded on a BioTeck PowerWave XS spectrophotometer (BioTeck Instruments, Winooski, VT, USA) and data were collected using KCJunior v.1.41. software (BioTeck Instruments, Winooski, VT, USA). Compounds with potent activity were selected to further determine their protective effect against ROS-induced cell death caused by H2O2.
DPPH colorimetric assay was performed to determine the in vitro radical scavenging activity of the acylselenourea derivatives. DPPH assay was performed as described by Svinyarov. For each acylselenourea, a stock solution of 1 mg/mL in dimethyl sulfoxide (DMSO) was made, and these solutions were used to prepare the different concentrations employed in the assay. The compounds were tested at two different concentrations (0.003 and 0.03 mg/mL). Intermediate solutions were prepared in methanol and a volume of 100 µL of each was added to each well of the plate. Then, 100 µL of DPPH^• (previously prepared at a concentration of 0.04 mg/mL in methanol and preserved in the dark) was added to the previous methanolic acylselenourea solutions. The discoloration of the purple radical to the yellow reduced form was followed at 517 nm at different time points (0, 5, 15, 30, 60, 90, and 120 min). Ascorbic acid and trolox were used as positive controls. All measurements were carried out in triplicate. Results are expressed as the percentage of the radicals scavenged, calculated using the following formula: (1) % DPPH radical scavenging=Acontrol - Asample/Acontrol × 100 where Acontrol refers to the absorbance of the negative control and Asample refers to the absorbance of the tested compounds. Results are expressed as percentage of DPPH radical scavenging ± SD.

[3] = test system: HTB-54 (lung) cancer cell line; test: MTT cell viability assay, HTB-54; type: cell-based, human; settings: Homo sapiens, HTB-54, 48 h; for activity at 10 µM: read-out: Cell growth %, HTB-54, 10 µM, 48 h, MTT; for activity at 50 µM: read-out: Cell growth %, HTB-54, 50 µM, 48 h, MTT
Method: as §1, §2, §3

[4] = test system: HT-29 (colon) cancer cell line; test: MTT cell viability assay, HT-29; type: cell-based; settings: Homo sapiens, HT-29, 48 h, read-out: Cell growth %; for activity at 10 µM: HT-29, 10 µM; for activity at 50 µM: HT-29, 50 µM
Method: as §1, §2, §3

[5] = test system: DU-145 (prostate) cancer cell line; test: MTT cell viability assay, DU-145; type: cell-based, human; settings: Homo sapiens, DU-145, 48 h; for activity at 10 µM: read-out: Cell growth %, DU-145, 10 µM, 48 h, MTT; for activity at 50 µM: read-out: Cell growth %, DU-145, 50 µM, 48 h, MTT
Method: as §1, §2, §3

DU-145 cells = test: Protective effects against H2O2-induced oxidative stress in DU-145 cells (MTT); type: cell-based, human; settings: cells without compounds
Method: Cells were treated with the selected compounds and then oxidative damage to DU-145 cells was induced using different concentrations of H2O2 (200, 250 and 300 µM), and cell viability was assessed by the MTT method. Briefly, 2.5 × 10^4 DU-145 cells per well were added in 96-well plates. After 24 h of incubation, DMSO, 1.I, 2.I, 5.I, 7.II, 10.II, and ascorbic acid were added to each well at two different concentrations (0.0015 mg/mL and 0.0003 mg/mL) and incubated for 1 h. After that, H2O2 was added at the concentrations of 200, 250, and 300 µM, and the cells were incubated for 12 h to induce cell damage. MTT assay was used to measure cell viability. For each treatment, the mean cell viability was calculated from three independent experiments. The DMSO-treated controls were assigned with a cell viability value of 100% (Vcontrol). The results are expressed as a cell growth inhibition % caused by H2O2 and the increased fold of cell survival, as follows: • Cells without compounds, only treated with H2O2: (2) % Cell growth inhibition=Acontrol - Asample/Acontrol × 100
• Cells treated with compounds and H2O2:
(3) % Cell growth inhibition=Asample (compound) - Asample (compound+H2O2)/Acontrol × 100
(4) Increase-fold of cell survival=% cell growth inhibition (H2O2)/% cell growth inhibition (compound+ H2O2)
The standard error of the mean (SEM) was calculated in at least three independent experiments performed in quadruplicates.

| SMILES | activity at 10 µM [1] [%] | activity at 50 µM [1] [%] | inhibition ([2]; 0.003 mg/mL, 0 min) [%] | inhibition ([2]; 0.003 mg/mL, 5 min) [%] | inhibition ([2]; 0.003 mg/mL, 15 min) [%] | inhibition ([2]; 0.003 mg/mL, 30 min) [%] | inhibition ([2]; 0.003 mg/mL, 60 min) [%] | inhibition ([2]; 0.003 mg/mL, 90 min) [%] | inhibition ([2]; 0.003 mg/mL, 120 min) [%] | inhibition ([2]; 0.03 mg/mL, 0 min) [%] | inhibition ([2]; 0.03 mg/mL, 5 min) [%] | inhibition ([2]; 0.03 mg/mL, 15 min) [%] | inhibition ([2]; 0.03 mg/mL, 30 min) [%] | inhibition ([2]; 0.03 mg/mL, 60 min) [%] | inhibition ([2]; 0.03 mg/mL, 120 min) [%] | DPPH Inhibitory% ([2]; 0.03 mg/mL, 90 min) [%] | activity at 10 µM [3] [%] | activity at 50 µM [3] [%] | activity at 10 µM [4] [%] | activity at 50 µM [4] [%] | also measured |
| --- | --- | --- | --- | --- | --- | --- | --- | --- | --- | --- | --- | --- | --- | --- | --- | --- | --- | --- | --- | --- | --- |
| C=CCNC(=[Se])NC(=O)c1ccccc1 [Compound 5.II, N-(allylcarbamoselenoyl)benzamide] | 80.4 ± 8.4 | 15.6 ± 6 | 1.3 ± 1.7 | 4.5 ± 1.7 | 7.5 ± 1.7 | 10.4 ± 1.8 | 13.9 ± 1.9 | 16.2 ± 2 | 17.8 ± 2.1 | 13.5 ± 1.3 | 42.4 ± 1.5 | 62.7 ± 0.8 | 80.2 ± 1.1 | 97.2 ± 0.7 | 97.7 ± 1 | 97.4 ± 0.8 | 67.6 ± 14.9 | 16.9 ± 4.1 | 100 ± 16.6 | 23.9 ± 5 | time to reach the highest DPPH inhibition ([2]; 0.03 mg/mL): 60 min; activity at 10 µM [5]: 97.5 ± 18.5%; activity at 50 µM [5]: 10.3 ± 4.9% |
| C#CCNC(=[Se])NC(=O)c1ccccc1 [Compound 5.III, N-(prop-2-in-1-ylcarbamoselenoyl)benzamide] | 78.5 ± 12 | 33.3 ± 6.5 | 0.6 ± 1.2 | 2.9 ± 1 | 5.1 ± 1.3 | 7.2 ± 1.6 |  | 11.3 ± 2 | 12.3 ± 2.1 | 9.3 ± 1 | 9.8 ± 0.3 | 23 ± 0.3 | 34 ± 0.6 | 46.6 ± 0.9 | 60.2 ± 0.7 | 54.6 ± 0.8 | 76 ± 4.8 | 33.4 ± 8.6 | 70 ± 8.7 | 33.9 ± 4.5 | activity at 10 µM [5]: 80.8 ± 7.4%; activity at 50 µM [5]: 26.3 ± 6.5% |
| OO [Compound H2O2, H2O2, reference compound] |  |  |  |  |  |  |  |  |  |  |  |  |  |  |  |  |  |  |  |  | Cell growth inhibition (%) (DU-145 cells; only treated with 200 µM H2O2, DU-145, 12 h): 36.9 ± 6.9%; Cell growth inhibition (%) (DU-145 cells; only treated with 250 µM H2O2, DU-145, 12 h): 53.4 ± 6.1%; Cell growth inhibition (%) (DU-145 cells; only treated with 300 µM H2O2, DU-145, 12 h): 66.8 ± 6.3% |
| Cc1c(C)c2c(c(C)c1O)CCC(C)(C(=O)O)O2 (stereo not shown) [Trolox, trolox, reference compound] |  |  | 28.4 ± 1 | 29.2 ± 1 | 29.2 ± 0.9 | 29.2 ± 0.8 | 29.2 ± 0.8 | 29.2 | 29.1 | 90.8 ± 2.3 | 96.3 ± 0.1 | 96.3 ± 0.2 | 96.3 ± 0.2 | 96.2 ± 0.2 | 96.2 ± 0.2 |  |  |  |  |  | inhibition ([2]; 0.03 mg/mL, 90 min): 96.2 ± 0.2% |
